# Publication PMC7044277 (Nature Communications, 2020)
# Several values for one entry are separate records, joined by “and”; a condition that tells them apart may be missing. Identical values can stand only once.
# Legend:
# Format in all cases: cell-based
# 320 non-olfactory GPCRs [1] = molecular target: T1, 320 non-olfactory GPCRs (Homo sapiens, UniProt P41180)
# T1 construct: expressed in transfected cells; host or cells: HTLA cells
# 320 non-olfactory GPCRs [2] = molecular target: T2, 320 non-olfactory GPCRs (Homo sapiens, UniProt O95838)
# T2 construct: expressed in transfected cells; host or cells: HTLA cells
# 320 non-olfactory GPCRs [3] = molecular target: T3, 320 non-olfactory GPCRs (Homo sapiens, UniProt O14842)
# T3 construct: expressed in transfected cells; host or cells: HTLA cells
# 320 non-olfactory GPCRs [4] = molecular target: 320 non-olfactory GPCRs (Homo sapiens, UniProt P35462)
# 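Also: compound tested at 1 µM final concentration.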
# T3 sequence (O14842 whole entry): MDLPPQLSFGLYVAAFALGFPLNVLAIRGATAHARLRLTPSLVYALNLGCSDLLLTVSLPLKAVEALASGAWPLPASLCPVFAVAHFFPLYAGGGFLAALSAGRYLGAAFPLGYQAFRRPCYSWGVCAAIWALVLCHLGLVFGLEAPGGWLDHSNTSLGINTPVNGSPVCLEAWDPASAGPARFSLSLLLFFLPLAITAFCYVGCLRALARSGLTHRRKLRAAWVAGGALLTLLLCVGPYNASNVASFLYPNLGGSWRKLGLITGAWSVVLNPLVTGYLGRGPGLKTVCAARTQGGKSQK
# T2 sequence (O95838 whole entry): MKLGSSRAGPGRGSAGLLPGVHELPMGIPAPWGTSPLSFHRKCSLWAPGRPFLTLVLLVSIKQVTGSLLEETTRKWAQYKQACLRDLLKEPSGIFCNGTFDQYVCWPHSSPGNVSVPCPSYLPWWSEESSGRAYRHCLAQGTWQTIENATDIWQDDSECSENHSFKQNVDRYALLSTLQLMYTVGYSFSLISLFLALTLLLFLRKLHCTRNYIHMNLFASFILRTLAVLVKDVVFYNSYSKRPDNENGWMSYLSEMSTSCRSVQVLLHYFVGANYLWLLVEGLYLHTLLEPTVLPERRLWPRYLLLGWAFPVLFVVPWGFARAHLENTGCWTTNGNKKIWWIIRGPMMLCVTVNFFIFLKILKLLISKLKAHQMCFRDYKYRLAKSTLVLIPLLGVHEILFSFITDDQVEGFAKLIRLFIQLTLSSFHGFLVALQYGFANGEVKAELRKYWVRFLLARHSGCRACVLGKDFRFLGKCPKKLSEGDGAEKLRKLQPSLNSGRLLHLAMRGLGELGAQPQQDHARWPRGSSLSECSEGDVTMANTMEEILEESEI
# Chain of 320 non-olfactory GPCRs (Homo sapiens, UniProt P35462) (P35462 whole entry): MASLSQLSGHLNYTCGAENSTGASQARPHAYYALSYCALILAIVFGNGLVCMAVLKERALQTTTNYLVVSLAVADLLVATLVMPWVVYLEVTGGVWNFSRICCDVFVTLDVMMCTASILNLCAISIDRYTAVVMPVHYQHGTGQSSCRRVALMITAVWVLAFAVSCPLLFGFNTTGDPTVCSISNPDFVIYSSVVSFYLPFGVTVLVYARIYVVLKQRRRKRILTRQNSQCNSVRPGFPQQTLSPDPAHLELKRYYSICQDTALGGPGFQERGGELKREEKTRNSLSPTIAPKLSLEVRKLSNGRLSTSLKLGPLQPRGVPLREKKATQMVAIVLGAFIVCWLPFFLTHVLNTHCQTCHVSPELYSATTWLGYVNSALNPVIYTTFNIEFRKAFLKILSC
# T1 sequence (P41180 20-1078): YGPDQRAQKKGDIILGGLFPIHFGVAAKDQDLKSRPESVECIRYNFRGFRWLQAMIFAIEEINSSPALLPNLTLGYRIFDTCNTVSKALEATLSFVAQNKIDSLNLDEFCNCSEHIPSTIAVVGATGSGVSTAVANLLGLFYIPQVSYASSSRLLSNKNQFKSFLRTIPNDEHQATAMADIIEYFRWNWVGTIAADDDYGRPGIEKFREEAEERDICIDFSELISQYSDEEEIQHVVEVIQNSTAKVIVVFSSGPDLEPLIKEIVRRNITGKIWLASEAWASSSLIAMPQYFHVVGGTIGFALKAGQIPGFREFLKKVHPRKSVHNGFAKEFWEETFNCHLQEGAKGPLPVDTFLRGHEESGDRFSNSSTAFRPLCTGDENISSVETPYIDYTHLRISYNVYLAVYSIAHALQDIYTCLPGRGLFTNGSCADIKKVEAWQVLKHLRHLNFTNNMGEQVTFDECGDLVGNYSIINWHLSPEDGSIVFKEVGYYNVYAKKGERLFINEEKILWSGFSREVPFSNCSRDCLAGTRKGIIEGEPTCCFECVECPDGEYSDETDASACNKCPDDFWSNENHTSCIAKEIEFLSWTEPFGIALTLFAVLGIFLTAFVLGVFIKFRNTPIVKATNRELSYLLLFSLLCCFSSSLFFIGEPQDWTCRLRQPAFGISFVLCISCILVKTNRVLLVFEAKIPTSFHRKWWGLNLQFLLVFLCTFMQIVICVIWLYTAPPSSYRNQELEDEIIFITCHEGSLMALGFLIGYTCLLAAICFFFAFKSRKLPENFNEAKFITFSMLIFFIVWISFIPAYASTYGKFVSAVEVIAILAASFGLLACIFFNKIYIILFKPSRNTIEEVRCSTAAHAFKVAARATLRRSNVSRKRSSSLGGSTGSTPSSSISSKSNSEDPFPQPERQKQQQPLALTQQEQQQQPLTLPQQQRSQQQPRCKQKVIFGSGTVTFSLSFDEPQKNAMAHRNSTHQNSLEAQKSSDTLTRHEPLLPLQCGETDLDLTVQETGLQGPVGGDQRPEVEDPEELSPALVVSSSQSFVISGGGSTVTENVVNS
smiles,measurement,setting,value
CCOc1cccc2cc(C(C)NCC3(O)CCCCC3)oc12 (stereo not shown) [O4LE6],Fold of Basal,320 non-olfactory GPCRs [1],0.9783 and 1.253 and 1.231 and 1.397
same,Fold of Basal,320 non-olfactory GPCRs [2],0.5783 and 0.9087 and 0.8921 and 0.8331
same,Fold of Basal,320 non-olfactory GPCRs [3],1.069 and 1.057 and 1.21 and 0.9963
same,Fold of Basal,320 non-olfactory GPCRs [4],9.324 and 11.1304 and 9.776 and 11.3977
